Here are results for 1 compound from patent publication US20110104289A1, “METHOD AND PHARMACEUTICAL COMPOSITION FOR OBTAINING THE PLASMATIC PROGESTERONE LEVELS REQUIRED FOR DIFFERENT THERAPEUTIC INDICATIONS” (POSI VISIONARY SOLUTIONS LLP, priority 2008, published 2011).

This data set in a line: Progesterone plasma levels after intramuscular-type injection of injectable aqueous suspension of progesterone particles. To be noted: female, human, humans, across the dosing schemes (100-300 mg, single or repeated injection), read-out: maximum plasma concentrations (Cmax). Format: in vivo, post-menopausal women. The method, then: 12 post-menopausal women were administered with a 100 mg single injection of progesterone spherical microparticles, in the form of an injectable aqueous suspension. Obtained plasma levels are illustrated in FIG. 1, wherein progesterone plasma concentrations are observed to be maintained up to 7 days in suitable levels for several therapies requiring said progesterone concentrations. 12 post-menopausal women were administered with a single 200 mg injection of progesterone spherical microparticles in the form of an injectable aqueous suspension. Obtained plasma levels are illustrated in FIG. 2, wherein progesterone plasma concentrations are observed to be maintained up to 7 days in suitable levels for several therapies requiring said progesterone concentrations and described in page 2. Four 200 mg repeated injections of progesterone spherical microparticles were administered in the form of an injectable aqueous suspension to 15 post-menopausal women. Obtained plasma levels are illustrated in FIG. 3, wherein progesterone plasma concentrations are observed to be maintained up to 7 days in suitable levels for several therapies requiring said progesterone concentrations and described in page 2. Four 300 mg repeated injections of progesterone spherical microparticles were administered in the form of an injectable aqueous suspension to 13 post-menopausal women. […]

The structures appear in SMILES notation.

Regarding `CC(=O)[C@H]1CC[C@H]2[C@@H]3CCC4=CC(=O)CC[C@]4(C)[C@H]3CC[C@]12C` [progesterone], the Cmax lay in the range of 12 to 42 ng/mL.
